Measurements as given in patent US20240368151A1, “NOVEL ERGOLINES AND METHODS OF TREATING MOOD DISORDERS” (priority 2021, published 2024).

Tested on: C57BL/6 mice
Assay: Marble burying test (MBT) in mice
Assay type: in vivo, mouse
Conditions: SC, 30-minute period
Procedure: Compound 1 produced an anxiolytic-like effect in the marble burying test (MBT) in C57BL/6 mice (FIG. 3).
Animals. Adult male C57BL/6 mice, aged 8-10 weeks (body weight 20-25 g) were used in these experiments. Animals were housed under controlled temperatures and 12-hour light/dark cycles (lights on between 07:00-19:00 h), with ad libitum food and water. This study was carried out in strict accordance with the requirements of the Committee for the Purpose of Control and Supervision of Experiments on Animals (CPCSEA), India. All efforts were made to minimize suffering.
Drugs and Drug Administration. Compound 1 was synthesized as described above. Desipramine HCl was commercially obtained. The test compound, vehicle, and the positive control desipramine were administered subcutaneously (SC), with doses calculated based on the freebase. Normal saline was used as the vehicle. All compounds were administered at a volume of 10 mL/kg. All treatments were administered 30 minutes prior to the start of behavioral testing. Group size was n=9-10 per treatment.
Marble Burying Test (MBT). […] Mice were handled for about 2 min daily for the 3 days prior to the beginning of the experimental procedure. […] The total number of marbles buried were counted in three 10-minute time bins (total 30 minutes). […]

CCCN1C[C@H](C(=O)N(CC)CC)C=C2c3cccc4[nH]cc(c34)C[C@H]21 [Compound 1, (6aR,9R)-N,N-diethyl-7-propyl-4,6,6a,7,8,9-hexahydroindolo[4,3-fg]quinoline-9-carboxamide]
number of marbles buried compared to vehicle, in words: reduced the number of marbles buried
